SMILES strings stand for the structures. Bounds are passed on as bounds.

The subject of assay [1] is BRCA1 mRNA expression in MDA-MB-231 cells. Description: qRT-PCR assay: inhibition of BRCA1 mRNA expression in MDA-MB-231 cells. The format is cell-based. The note with it: Homo sapiens, 24 h exposure, normalised to GAPDH, read-out: RTqPCR-MDA-MB-231 IC50 [mol/l] BRCA1 (median). The procedure:
Tissue cultured human MDA-MB-231 human breast cancer cells were plated in 500 microL per well at 200,000 cells/well in a 24 well microtiter plate. After 24 h, the cells were exposed continuously for 24 h to test substances (substances were added with Tecan HP D300 Dispenser). RNA was prepared using Qiagen RNeasy MiniKit (#74106), RNA was quantified using a NanoDrop Equipment, and 600 nano gamms of RNA was converted to cDNA using a SuperScript VILO kit (Thermofisher #11755050) followed by qPCR amplification. BRCA1 and ATR gene expression was measured by RT-qPCR and normalised to GAPDH housekeeping gene expression. qPCR primer sets have been purchased from Thermo Fisher Scientific/Applied Biosystems: BRCA1, #Hs 01556193; ATR, #Hs 00992123; GAPDH, #Hs 03929097.
Background: In qPCR the cycle at which signal appears reflects the starting amount.

Assay [2] relates to MDA-MB-231 human breast cancer cells. The experiment in a line: Proliferation assay MDA-MB-231 (crystal violet). The format is cell-based. As to conditions: 96 h, MDA-MB-231 cells, 4 days, read-out: Prolif-MDA MB231 IC50-[mol/l] (median). As to the method: Human tumour cells were originally obtained from the American Type Culture Collection (ATCC), or from the Deutsche Sammlung von Mikroorganismen und Zellkulturen (DSMZ, German Collection of Microorganisms and Cell Cultures). Cultivated tumour cells (CAL-120, human breast adenocarcinoma cells, DSMZ ACC-459; MDA-MB-231, human breast cancer cells, ATCC HTB-26) were plated at a density of 4,000 cells/well in a 96-well multititer plate in 200 microL of their respective growth medium supplemented 10% fetal calf serum. After 24 hours, the cells of one plate (zero-point plate) were stained with crystal violet (see below), while the medium of the other plates was supplemented with the test substances in various concentrations (0 micromol/L, as well as in the range of 0.01-10 micromol/L; the final concentration of the solvent dimethyl sulfoxide was adjusted to 0.1%) using a Tecan HP D300 Digital Dispenser. The cells were incubated for 4 days in the presence of test substances. Cell proliferation was determined by staining the cells with crystal violet: the cells were fixed by adding 20 microL/measuring point of an 11% glutaric aldehyde solution for 15 minutes at room temperature. After three washing cycles of the fixed cells with water, the plates were dried at room temperature. The cells were stained by adding 100 microL/measuring point of a 0.1% crystal violet solution (pH 3.0). After three washing cycles of the stained cells with water, the plates were dried at room temperature. The dye was dissolved by adding 100 microL/measuring point of a 10% acetic acid solution. The extinction was determined by photometry at a wavelength of 595 nm. The change of cell number, in percent, was calculated by normalization of the measured values to the extinction values of the zero-point plate (=0%) and the extinction of the untreated (0 μM) cells (=100%). The IC50 values (inhibitory concentration at 50% of maximal effect) were determined by means of a 4 parameter fit.

A further assay concerns CYCLIN K. The experiment in a line: CYCLIN K nuclear protein level: immunofluorescence/high content analysis in CAL-120 cells. The format is cell-based, human. As to conditions: 24 h, nuclear CCNK staining, read-out: CYCLIN K degradation IF, DC50-[mol/l] (median). The procedure: In the context of the present invention, the term “DC50 Cyclin K” refers to the DC50 values obtained according to the assay described in this section (7) herein below, i.e. the DC50 values for the degradation of Cyclin K.
CAL-120 human breast cancer cells (DSMZ ACC 459) are seeded in 1536-well microtiter plates (800 cells per well) containing 50 nanoL of compounds in Dose-Response. Control wells received DMSO or Reference Example 1. Plates are then incubated for 24 h at 37° C. in an humidified incubator and fixed with 4% PFA for 10 min. Then immunofluorescence (IF) against CYCLIN K (ThermoFisher Scientific CCNK Antibody #PA5-85020, rabbit, 1:200 dilution) is performed using standard IF protocols. Cells are then stained with Hoechst 33342 (Life Technologies, H-1399, 0.1 microg/ml) and imaged on an automated confocal microscopy system (e.g. Perkin Elmer Opera Phenix). Nuclear and cytoplasmic intensity as well as the nuclear/cytoplasmic intensity ratio is determined by automated image analysis using custom generated scripts (MetaXpress). Data is then transferred to Genedata Screener software, normalized to DMSO and control and DC50 values (degrading concentration to achieve 50% reduction of nuclear CCNK staining intensity relative to controls) are reported.

Turning to `Fc1ccc2[nH]c(CNc3nc(N4CCNCC4)nn4c(Br)cnc34)nc2c1F` [Example 10, 7-bromo-N-[(4,5-difluoro-1H-benzimidazol-2-yl)methyl]-2-(piperazin-1-yl)imidazo[2,1-f][1,2,4]triazin-4-amine], the IC50 amounted to 0.548 nM in assay [1] and 2.49 nM in assay [2]. For the same molecule, the DC50 in the assay with CYCLIN K stood at 0.0632 nM.
Turning to `Fc1cccc(-c2cnc3c(NCc4nc5ccccc5[nH]4)nc(N4CCOCC4)nn23)c1` [Example 3, N-[(1H-benzimidazol-2-yl)methyl]-7-(3-fluorophenyl)-2-(morpholin-4-yl)imidazo[2,1-f][1,2,4]triazin-4-amine], the IC50 in assay [1] was > 100 nM. Also, the DC50 with CYCLIN K was found to be 23.9 nM.
Regarding `CN1CCN(c2nc(NCc3nc4c(F)cccc4[nH]3)c3ncc(Br)n3n2)CC1` [Example 23, 7-bromo-N-[(4-fluoro-1H-benzimidazol-2-yl)methyl]-2-(4-methylpiperazin-1-yl)imidazo[2,1-f][1,2,4]triazin-4-amine], the figures for the IC50 in assay [1] and in assay [2] were 3.12 nM and 34.3 nM, respectively. Moreover, the DC50 in the assay with CYCLIN K came to 0.863 nM.
The like results for `Brc1cnc2c(NCc3nc4ccccc4[nH]3)nc(N3CCNCC3)nn12` [Example 8, N-[(1H-benzimidazol-2-yl)methyl]-7-bromo-2-(piperazin-1-yl)imidazo[2,1-f][1,2,4]triazin-4-amine] were, in that order, 3.4 nM, 14.5 nM and 1.28 nM.
Take `N#Cc1cnc2c(NCc3nc4ccccc4[nH]3)nc(N3CCOCC3)nn12` [Example 2, 4-{[(1H-benzimidazol-2-yl)methyl]amino}-2-(morpholin-4-yl)imidazo[2,1-f][1,2,4]triazine-7-carbonitrile]: the IC50 in assay [1] stood at 11.1 nM. Moreover, the DC50 in the assay on CYCLIN K worked out at 3.58 nM.
As for `C[C@@H]1CN(c2nc(NCc3nc4c(F)c(F)ccc4[nH]3)c3ncc(C(F)(F)F)n3n2)C[C@H](C)N1` [Example 29, N-[(4,5-difluoro-1H-benzimidazol-2-yl)methyl]-2-[rel-(3R,5S)-3,5-dimethylpiperazin-1-yl]-7-(trifluoromethyl)imidazo[2,1-f][1,2,4]triazin-4-amine], the IC50 was found to be 1.05 nM in assay [1] and 0.839 nM in assay [2]. In the assay on CYCLIN K, the DC50 is 0.267 nM.
Regarding `Fc1ccc2[nH]c(CNc3nc(N4CCOCC4)nn4c(Br)cnc34)nc2c1F` [Example 7, 7-bromo-N-[(4,5-difluoro-1H-benzimidazol-2-yl)methyl]-2-(morpholin-4-yl)imidazo[2,1-f][1,2,4]triazin-4-amine], the IC50 in assay [1] was found to be 6.36 nM; in assay [2], 7.93 nM. Moreover, the DC50 with CYCLIN K was 0.201 nM.
The like results for `C[C@@H]1CN(c2nc(NCc3nc4cc(F)ccc4[nH]3)c3ncc(Br)n3n2)C[C@H](C)N1` [Example 19, 7-bromo-2-[rel-(3R,5S)-3,5-dimethylpiperazin-1-yl]-N-[(5-fluoro-1H-benzimidazol-2-yl)methyl]imidazo[2,1-f][1,2,4]triazin-4-amine] were, in that order, 0.886 nM, 2.73 nM and 0.0931 nM.
The like results for `Fc1ccc2[nH]c(CNc3nc(N4CCOCC4)nn4c(Br)cnc34)nc2c1` [Example 20, 7-bromo-N-[(5-fluoro-1H-benzimidazol-2-yl)methyl]-2-(morpholin-4-yl)imidazo[2,1-f][1,2,4]triazin-4-amine] were, in that order, 3.54 nM, 3.73 nM and 0.0659 nM.
The like results for `C[C@@H]1CN(c2nc(NCc3nc4ccccc4[nH]3)c3ncc(Br)n3n2)C[C@H](C)O1` [Example 4, N-[(1H-benzimidazol-2-yl)methyl]-7-bromo-2-[rel-(2R,6S)-2,6-dimethylmorpholin-4-yl]imidazo[2,1-f][1,2,4]triazin-4-amine] were, in that order, 25.9 nM, 59.2 nM and 1.14 nM.
For `C[C@@H]1CN(c2nc(NCc3nc4c(F)cccc4[nH]3)c3ncc(Br)n3n2)C[C@H](C)N1` [Example 18, 7-bromo-2-[rel-(3R,5S)-3,5-dimethylpiperazin-1-yl]-N-[(4-fluoro-1H-benzimidazol-2-yl)methyl]imidazo[2,1-f][1,2,4]triazin-4-amine], the results for the IC50 in assay [1] and in assay [2] were 1.98 nM and 3.45 nM, respectively. Besides, in the assay with CYCLIN K, the DC50 is 0.505 nM.
For the molecule `CN1CCN(c2nc(NCc3nc4ccccc4[nH]3)c3ncc(C(F)(F)F)n3n2)CC1` [Example 25, N-[(1H-benzimidazol-2-yl)methyl]-2-(4-methylpiperazin-1-yl)-7-(trifluoromethyl)imidazo[2,1-f][1,2,4]triazin-4-amine], the IC50 came to 8.65 nM in assay [1] and 13.2 nM in assay [2]. The DC50 in the assay with CYCLIN K came to 1.66 nM.
The like results for `COc1cccc2[nH]c(CNc3nc(N4CCOCC4)nn4c(Br)cnc34)nc12` [Example 13, 7-bromo-N-[(4-methoxy-1H-benzimidazol-2-yl)methyl]-2-(morpholin-4-yl)imidazo[2,1-f][1,2,4]triazin-4-amine] were, in that order, 8.06 nM, 27.9 nM and 1.57 nM.
For the molecule `FC(F)(F)c1cnc2c(NCc3nc4ccccc4[nH]3)nc(N3CCOCC3)nn12` [Example 26, N-[(1H-benzimidazol-2-yl)methyl]-2-(morpholin-4-yl)-7-(trifluoromethyl)imidazo[2,1-f][1,2,4]triazin-4-amine], the IC50 stood at 3.64 nM in assay [1] and 7.21 nM in assay [2]. Besides, in the assay with CYCLIN K, the DC50 worked out at 0.552 nM.
On to `C[C@@H]1CN(c2nc(NCc3nc4c(F)c(F)ccc4[nH]3)c3ncc(Br)n3n2)C[C@H](C)N1` [Example 11, 7-bromo-N-[(4,5-difluoro-1H-benzimidazol-2-yl)methyl]-2-[rel-(3R,5S)-3,5-dimethylpiperazin-1-yl]imidazo[2,1-f][1,2,4]triazin-4-amine], for which the IC50 was found to be 0.396 nM in assay [1] and 0.948 nM in assay [2]. For the same molecule, the DC50 in the assay on CYCLIN K amounted to 0.0525 nM.
`C[C@@H]1CN(c2nc(NCc3nc4c(F)c(F)ccc4[nH]3)c3ncc(Br)n3n2)C[C@H](C)O1` [Example 5, 7-bromo-N-[(4,5-difluoro-1H-benzimidazol-2-yl)methyl]-2-[rel-(2R,6S)-2,6-dimethylmorpholin-4-yl]imidazo[2,1-f][1,2,4]triazin-4-amine]: the IC50 in assay [1] is 6.39 nM. Further, in the assay with CYCLIN K, the DC50 was found to be 1.16 nM.
The like results for `OC[C@@H]1CCCCN1c1nc(NCc2nc3ccccc3[nH]2)c2ncc(Br)n2n1` [Example 17, [(2S)-1-(4-{[(1H-benzimidazol-2-yl)methyl]amino}-7-bromoimidazo[2,1-f][1,2,4]triazin-2-yl)piperidin-2-yl]methanol] were, in that order, 15.7 nM and 3.94 nM.
`Fc1cccc2[nH]c(CNc3nc(N4CCOCC4)nn4c(Br)cnc34)nc12` [Example 12, 7-bromo-N-[(4-fluoro-1H-benzimidazol-2-yl)methyl]-2-(morpholin-4-yl)imidazo[2,1-f][1,2,4]triazin-4-amine]: the IC50 in assay [2] was determined as 111 nM. Moreover, the DC50 in the assay on CYCLIN K amounted to 0.292 nM.
Consider `CN(CC(C)(C)O)c1nc(NCc2nc3ccccc3[nH]2)c2ncc(C(F)(F)F)n2n1` [Example 30, 1-[{4-[(1H-benzimidazol-2-ylmethyl)amino]-7-(trifluoromethyl)imidazo[2,1-f][1,2,4]triazin-2-yl}(methyl)amino]-2-methylpropan-2-ol], for which the IC50 turned out to be 7.23 nM in assay [1] and 17.3 nM in assay [2].

The record behind these values is patent US20230106032A1, “IMIDAZOTRIAZINES ACTING ON CANCER VIA INHIBITION OF CDK12” (Bayer Aktiengesellschaft, priority 2020, published 2023).
